Measured values: paper PMC10747913, “Preparation of ^18F-Labeled Tracers Targeting Fibroblast Activation Protein via Sulfur [^18F]Fluoride Exchange Reaction” (Pharmaceutics, 2023)

Experiments:
[1] = Liver cytosol assay (RLC); assay type: in vitro ADME, rat; settings: positive control, 40 µM, after 60 min
Protocol: (§1) Liver cytosol experiments with [^18F]12 were performed according to reported procedures.
(§2) Vanilin (40 µM final) was used as positive control for the activity of the liver cytosols and was separately incubated under the conditions described above (1% EtOH final). […] More than 80% of the vanilin had been degraded after 60 min in the presence of HLC, while around 60% of the vanilin had been degraded with RLC. There was no change in the degradation rate with and without 1% EtOH in the incubation mixture.

[2] = Liver cytosol assay (HLC); assay type: in vitro ADME, human; settings: positive control, 40 µM, after 60 min
Protocol: as §1, §2

[3] = target: T1, human recombinant FAP (Homo sapiens, UniProt Q12884); assay: Fluorogenic FAP enzyme inhibition assay (BPS Bioscience #80210, Ala-Pro-AMC substrate); assay type: biochemical; settings: for Hill Coefficient: mean with 95% confidence interval in brackets
T1 construct: purchased BPS Bioscience 80210
T1 sequence (Q12884 1-760): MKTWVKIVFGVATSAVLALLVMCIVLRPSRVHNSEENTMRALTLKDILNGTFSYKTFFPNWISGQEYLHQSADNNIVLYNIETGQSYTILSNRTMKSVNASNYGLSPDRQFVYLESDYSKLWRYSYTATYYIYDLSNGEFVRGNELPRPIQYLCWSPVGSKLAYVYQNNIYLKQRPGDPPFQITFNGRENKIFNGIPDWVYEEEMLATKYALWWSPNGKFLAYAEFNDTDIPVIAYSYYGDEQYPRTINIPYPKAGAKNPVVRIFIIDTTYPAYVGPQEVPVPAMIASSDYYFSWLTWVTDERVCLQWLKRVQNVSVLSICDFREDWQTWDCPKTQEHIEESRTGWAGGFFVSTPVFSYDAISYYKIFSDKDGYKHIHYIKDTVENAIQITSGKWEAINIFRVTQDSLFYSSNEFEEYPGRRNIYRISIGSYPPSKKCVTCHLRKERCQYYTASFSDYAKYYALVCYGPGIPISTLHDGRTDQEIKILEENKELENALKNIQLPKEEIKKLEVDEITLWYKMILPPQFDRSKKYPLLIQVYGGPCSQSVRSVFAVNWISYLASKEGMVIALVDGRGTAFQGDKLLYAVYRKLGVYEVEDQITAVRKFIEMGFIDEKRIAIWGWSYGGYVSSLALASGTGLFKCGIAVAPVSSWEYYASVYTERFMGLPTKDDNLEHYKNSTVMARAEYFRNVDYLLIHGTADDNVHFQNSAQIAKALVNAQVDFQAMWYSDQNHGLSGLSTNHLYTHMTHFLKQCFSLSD
Protocol: To determine the inhibitory capacity, a commercial fluorogenic FAP assay was used (BPS Bioscience, San Diego, CA, USA, #80210) according to the manufacturer’s instructions. […] On the day of testing, a 1:10 dilution in the supplied DPP assay buffer was performed for all compounds. […] The fluorogenic peptide substrate (Ala-Pro-AMC dipeptide) was added and the reaction started with the addition of the human recombinant FAP (25 ng/µL). Immediately, the plate was loaded into a multilabel plate reader (Biotek Cytation 5, Agilent, Bellevue, WA, USA) and each well was measured at an excitation wavelength window of 360 ± 20 nm and an emission wavelength window of 450 ± 20 nm. The fluorescence intensity was measured over 15 min in intervals of 15 s, resulting in 61 data points per curve. Controls included blanks (omission of substrate, enzyme and inhibitor), negative (omission of enzyme) and positive controls (omission of inhibitor). The recorded time courses of the type (RFU − RFU0) = f(t) were analyzed with linear regression of the experimental data over the entire measurement period. […] (2) rate=Bottom+(Top−Bottom)×[I]^nH/[I]^nH+IC50^nH
Spanning a range of compound concentrations (50 pM–1 µM), fluorescence intensity changes were followed over 15 min.

[4] = human
Protocol: Microsome experiments with [^18F]12 in the presence of NADPH were performed according to the procedure recently described by us with slight modifications. […] The radiotracer dissolved in EtOH (4 µL; 5 MBq/µL) was diluted with PBS (496 µL, 0.8% EtOH). This radiotracer solution (100 µL, 0.32% EtOH and 16 MBq/mL or 1.6 µM final) was mixed with PBS (112.5 µL) and human liver microsomes (12.5 µL of 20 mg/mL stock; 1 mg/mL final; Gibco™ Cat. No. HMMCPL, Lot. No. PL050E-B) in a 1.5 mL Eppendorf tube and the mixture was warmed for 5 min at 37 °C. Subsequently, NADPH (25 µL of freshly prepared 20 mM solution in PBS, 2 mM final) was added and the mixture was incubated at 37 °C. As a control incubation, NADPH was omitted and replaced by PBS. After distinct time points (10, 20, 30 and 60 min), an aliquot (40 µL) was withdrawn and added to ice-cooled CH3CN (160 µL). The mixture was vortexed for 30 s, stored on ice for 4 min and centrifuged (5 min at 15,000 rpm). The resulting supernatant was used for radio-HPLC analysis using the Shimadzu system described in Section 2.2 with the following conditions. A C18 column Kinetex® from Phenomenex (5 µm, 100 Å, LC Column 250 × 4.6 mm) served as stationary phase. The eluent consisted of (A) 0.1% trifluoroacetic acid in H2O and (B) MeCN; flow rate 1 mL/min; elution profile A/B: t0 min 70/30–t10.0 min 70/30–t11.0 min 5/95–t16.0 min 5/95–t17.0 min 70/30–t22.0 min 70/30.
Testosterone (40 µM final) was used as a positive control for the activity of the HLM and was separately incubated under the conditions described above (0% EtOH final).

[5] = Serum stability assay at 37 °C (radio-UHPLC); assay type: in vitro ADME, human
Protocol: Either [^18F]12 or [^18F]13 (20–40 MBq) in 40 µL EtOH aliquots was incubated with 360 µL human serum (Sigma Aldrich, Darmstadt, Germany) at 37 °C. After specific time intervals (5–120 min), 40 µL samples were taken from the serum incubation mixture, added to 80 µL “Supersol” solubilizing agent (see Supplementary Materials Table S6) and cooled over ice for 2 min. Thereafter, the cooled mixture was centrifuged at 4 °C (15,000 rpm) for 3 min and 80 µL of the supernatant solution was monitored with radio-UHPLC. A gradient of 5% to 45% acetonitrile in 7.5 min was used for enhanced separation.
(§3) The radiochemical purity and identity of [^18F]12 and [^18F]13 was analyzed with radio-HPLC. […] Prior to a biological evaluation, preliminary stability studies of [^18F]12 and [^18F]13 were performed in human serum at 37 °C (Figure 3A,B). The stability studies were performed by taking an aliquot of the radiolabeled product solution and incubating the product mixture in the desired solvent or human serum at 37 °C for the given time points. In both cases, decomposition of [^18F]12 and [^18F]13 was evident from the first peak in the radioactive channel (tR: 0.6–1.0), most likely due to the release of [^18F]fluoride, which could be detected using UHPLC analysis from the first time point of 15 min and continued until 120 min. After 60 min, approximately 20% of [^18F]12 and 19% of [^18F]13 had been degraded; following a 120 min incubation, approximately 38% of both [^18F]12 and [^18F]13 had been degraded.

[6] = Stability in EtOH; assay type: physicochemical; settings: 120 min
Protocol: In addition, we performed a series of stability studies of compounds [^18F]12 and [^18F]13 in EtOH, phosphate-buffered saline (PBS, pH 7.4) and human serum (37 °C) to provide an indication of the rates of in vivo defluorination. […] These findings correlate with the unwanted accumulation of activity in the bones and joints obtained during PET imaging experiments in a healthy mice (Figure 5A,B).

[7] = Stability in PBS (pH 7.4); assay type: physicochemical; settings: PBS pH 7.4, 120 min
Protocol: as §3

Compound: COc1cc(C=O)ccc1O [vanilin, Vanilin, reference compound]
- fraction degraded with RLC [1]: around 60%
- fraction degraded in presence of HLC [2]: More than 80%

Compound: N#C[C@@H]1CC(F)(F)CN1C(=O)CNC(=O)c1ccnc2ccc(OCCCN3CCN(C(=O)c4ccc(OS(=O)(=O)F)cc4)CC3)cc12 [compound 12]
- IC50 [3]: 9.63 nM
- Hill Coefficient [3]: −1.56 (−2.43 to −1.059)

Compound: C[C@]12CC[C@H]3[C@@H](CCC4=CC(=O)CC[C@@]43C)[C@@H]1CC[C@@H]2O [Testosterone, reference compound]
- time after which metabolization was completed [4]: > 30 min

Compound: N#C[C@@H]1CC(F)(F)CN1C(=O)CNC(=O)c1ccnc2ccc(OCCCN3CCN(C(=O)c4cccc(OS(=O)(=O)F)c4)CC3)cc12 [compound 13]
- IC50 [3]: 4.17 nM
- Hill Coefficient [3]: −1.27 (−1.98 to −0.91)

Compound: N#C[C@@H]1CC(F)(F)CN1C(=O)CNC(=O)c1ccnc2ccc(OCCCN3CCN(C(=O)c4cccc(OS(=O)(=O)[18F])c4)CC3)cc12 [[^18F]13]
- fraction degraded in human serum ([5]; 120 min incubation): approximately 38%
- fraction degraded in human serum ([5]; after 60 min): ~19%
- stability in human serum ([5]; after only 15 min): clear signs of instability
- stability in EtOH [6]: stable
- stability in PBS [7]: stable

Compound: N#C[C@@H]1CC(F)(F)CN1C(=O)CNC(=O)c1ccnc2ccc(OCCCN3CCN(C(=O)CN4CCN(CC(=O)O)CCN(CC(=O)O)CCN(CC(=O)O)CC4)CC3)cc12 [FAPI-04, reference compound]
- Hill Coefficient [3]: −1.51 (−2.51 to −0.95)
